# pIC50: −log10 of the molar value. Read-outs that look alike come from different tables or passages of the source. Where a SMILES comes first, the peptide text is derived from it. Where no end group is shown, it is not given here.
# What was measured:
# HIV-1 = assay: microbe, parasite or virus in culture
# Description: Fresh human blood was obtained commercially from Interstate Blood Bank, Inc. (Memphis, Tenn.). The lymphotropic clinical isolate HIV-1ROJO was obtained from a pediatric patient attending the AIDS Clinic at the University of Alabama at Birmingham. The laboratory-adapted HIV-1IIIB strain was propagated and tittered in fresh human PBMCs; pre-titered aliquots of HIV-1ROJO and Hiv-1IIIB were removed from the freezer (−80° C.) and thawed rapidly to room temperature in a biological safety cabinet immediately before use. Phytohemagglutinin (PHA-P) was obtained from Sigma (St. Louis, Mo.) and recombinant IL-2 was obtained from Amgen (San Francisco, Calif.).
# Fresh human PBMCs were isolated from screened donors, seronegative for HIV and HBV. Leukophoresed blood was diluted 1:1 with Dulbecco's phosphate buffered saline (PBS), layered over 14 mL of Ficoll-Hypaque density gradient in a 50 mL centrifuge tube and then centrifuged for 30 minutes at 600×g. Banded PBMCs were aspirated from the resulting interface and subsequently washed 2× with PBS by low speed centrifugation. After the final wash, cells were enumerated by trypan blue exclusion and re-suspended at 1×10^7 cells/mL in RPMI 1640 supplemented with 15% Fetal Bovine Serum (FBS), 2 mM L-glutamine, 4 μg/mL PHA-P. The cells were allowed to incubate for 48-72 hours at 37° C. After incubation, PBMCs were centrifuged and reset in RPMI 1640 with 15% FBS, 2 mM L-glutamine, 100 U/ml penicillin, 100 μg/mL streptomycin, 10 μg/mL gentamycin, and 20 U/mL recombinant human IL-2. PBMCs were maintained in this medium at a concentration of 1-2×10^6 cells/mL with biweekly medium changes until used in the assay protocol.
# For the standard PBMC assay, PHA-P stimulated cells from at least two normal donors were pooled, diluted in fresh medium to a final concentration of 1×10^6 cells/mL, and plated in the interior wells of 96 well round bottom microplate at 50 μL/well (5×10^4 cells/well). Test drug dilutions were prepared at a 2× concentration in microtiter tubes and 100 μL of each concentration was placed in appropriate wells in a standard format. 50 μl, of a predetermined dilution of virus stock was placed in each test well (final MOI≈0.1). Wells with cells and virus alone were used for virus control. Separate plates were prepared identically without virus for drug cytotoxicity studies using an XTT assay system. The PBMC cultures were maintained for seven days following infection, at which time cell-free supernate samples were collected and assayed for reverse transcriptase activity as described below.
# A microtiter based reverse transcriptase (RT) reaction was utilized. See Buckheit et al., AIDS Research and Human Retroviruses 7:295-302 (1991). Tritiated thymidine triphosphate (NEN) (TTP) was resuspended in distilled H2O at 5 Ci/ml. Poly rA and oligo dT were prepared as a stock solution which was kept at −20° C. The RT reaction buffer was prepared fresh on a daily basis and consists of 125 μl 1M EGTA, 125 μl dH2O, 110 μl 10% SDS, 50 μl 1M Tris (pH 7.4), 50 μl 1M DTT, and 40 μl 1M MgCL2. These three solutions were mixed together in a ratio of 2 parts TTP, 1 part poly rA:oligo dT, and 1 part reaction buffer. Ten microliters of this reactions mixture was placed at a round bottom microtiter plate and 15 μl of virus containing supernatant was added and mixed. The plate was incubated at 37° C. in a water bath with a solid support to prevent submersion of the plate and incubated for 60 minutes. Following reaction, the reaction volume was spotted onto pieces of DE81 paper, washed 5 times 5 minutes each in a 5% sodium phosphate buffer, 2 times 1 minute each in distilled water, 2 times for 1 minute each in 70% ethanol, and then dried. Opti-Fluor-O (Packard) was added to each sample and incorporated radioactivity was quantified utilizing a Wallac 1450 MicroBeta Plus liquid scintillation counter.
# [1] = Cytotoxicity measurement by MTS staining in PBMC cultures; assay type: cell-based; conditions: human
# Description: At assay termination the assay plates were stained with the soluble tetrazolium-based dye MTS (CellTiter Reagent, Promega) to determine cell viability and quantify compound toxicity. MTS is metabolized by the mitochondria enzymes of metabolically active cells to yield a soluble formazan product, allowing the rapid quantitative analysis cell viability and compound cytotoxicity. […] At termination of the assay, 20 μl of MTS reagent was added per well. The wells were incubated overnight for the HIV cytoprotection assay at 37° C. The incubation intervals were chosen based on empirically determined times for optimal dye reduction in each cell type. Adhesive plate sealers were used in place of the lids, the sealed plate was inverted several times to mix the soluble formazan product and the plate was read spectrophotometrically at 490 nm with a Molecular Devices Vmax plate reader.
# Full length Tsg101 = molecular target: T1, Full length Tsg101 (Homo sapiens, UniProt Q99816); assay: Yeast two-hybrid liquid culture β-galactosidase assay; assay type: binding; conditions: p6 point mutants
# T1 construct: expressed in transfected cells
# T1 sequence (Q99816 1-390): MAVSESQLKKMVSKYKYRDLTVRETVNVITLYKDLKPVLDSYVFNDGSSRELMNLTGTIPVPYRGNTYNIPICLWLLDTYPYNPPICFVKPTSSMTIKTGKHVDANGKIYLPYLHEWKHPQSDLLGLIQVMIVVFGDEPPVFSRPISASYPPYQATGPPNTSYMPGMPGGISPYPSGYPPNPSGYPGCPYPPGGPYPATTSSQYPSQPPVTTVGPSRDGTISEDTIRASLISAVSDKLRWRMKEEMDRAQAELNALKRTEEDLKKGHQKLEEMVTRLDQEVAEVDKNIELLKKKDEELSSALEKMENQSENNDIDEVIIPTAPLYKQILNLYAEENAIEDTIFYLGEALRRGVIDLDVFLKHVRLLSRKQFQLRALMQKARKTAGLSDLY
# Description: The interactions between TSG101 and wild-type p6gag (WT) or the p6gag PTAP mutants were further quantitated by performing liquid culture β-galactosidase assays. Cultures were grown overnight in synthetic media (-Leu, -Trp, +glucose) in 96 well plates, normalized for optical density, and lysed by addition of 6× lysis/substrate solution in 6×Z-buffer (60 mM KCl, 6 mM MgSO4, 360 mM Na2HPO4, 240 mM NaH2PO4, 6 mg/ml CPRG, 0.12 U/ml lyticase, 0.075% NP-40). Cultures were incubated for 2 hr at 37° C., clarified by centrifugation, and the optical absorbance of each supernatant was measured (575 nm). Full length Tsg101 bound wild-type p6 in the two-hybrid liquid culture assay, resulting in high levels of β-galactosidase activity (>300-fold over background). […] Each of these point mutations also arrests HIV-1 budding at a late stage (Huang et al. 1995).
# Tsg101 = molecular target: T2, Tsg101 (Homo sapiens, UniProt Q99816); assay: Yeast two-hybrid filter lift assay for β-Gal activity (Tsg101 / p6gag interaction); assay type: binding; parameters: key to Interactions Between Tsg101 and p6gag (β-Gal activity): +: Positive β-Gal activity indicates that the p6gag wild type or mutant protein interacts with Tsg101; conditions: for ability to bind Tsg101 protein / Tsg101-p6gag interaction (in words): yeast two-hybrid
# T2 construct: expressed in transfected cells
# Text: Yeast two-hybrid assays were utilized to determine the effect of amino acid substitution mutations in the PTAP motif of HIV p6gag on the interaction between Tsg101 and p6gag. To prepare a yeast two-hybrid activation domain-Tsg101 construct, a DNA fragment encompassing the full-length coding sequence for Tsg101 according to GenBank Accession No. U82130 was obtained by PCR from a human fetal brain cDNA library and cloned into the EcoRI/Pst1 sites of the activation domain parent plasmid GADpN2 (LEU2, CEN4, ARS1, ADH1p-SV40NLS-GAL4 (768-881)-MCS (multiple cloning site)-PGK1t, AmpR, ColE1_ori).
# To prepare the yeast two-hybrid DNA binding domain-HIV1 p6gag construct, a DNA fragment corresponding to the HIV1 p6 peptide derived from the HIV1.NL43 strain GAG protein was obtained by PCR from the NL43 containing plasmid R9Δapa and was cloned into the EcoRI/Sal1 sites of the binding domain parent plasmid pGBT.Q. The sequence of the amplified insert is shown in SEQ ID NO:3485. In addition, the amino acid sequence of the HIV-1NYU/BR5 GAG is provided in GenBank under Accession No. AF324493 and is listed in SEQ ID NO:3484.
# The following amino acid substitution mutations were introduced by PCR into the HIV1 p6gag sequence in the yeast two-hybrid binding domain-HIV1 p6gag construct described above. The mutations were verified by DNA sequence analysis.
# To test the effect of the mutations, yeast cells of the strain Y189 purchased from Clontech (ura3-52 his3*200 ade2-101 trp1-901 leu2-3,112 met gal4 gal80 URA3::GAL1p-lacZ) were co-transformed with the activation domain-Tsg101 construct and one of the binding domain-mutant p6gag constructs or the binding domain-wild type p6gag construct. Filter lift assays for β-Gal activity were conducted by lifting the transformed yeast colonies with filters, lysing the yeast cells by freezing and thawing, and contacting the lysed cells with X-Gal. […] All binding domain constructs were also tested for self-activation of β-Gal activity.
# [2] = fresh human PBMCs, seven days following infection, RT activity
# [3] = PBMC plates without virus, tetrazolium dye staining, read-out: TC50
Compound,Comments (anti-HIV activity) (HIV-1; fresh human PBMCs),pIC50 (HIV-1; [2]),"CC50 at 7 days [1, 3]",β-galactosidase activity (in words) (Full length Tsg101),ability to bind Tsg101 protein / Tsg101-p6gag interaction (in words) (Tsg101),other results
"Cc1cn([C@H]2C[C@H](N=[N+]=[N-])[C@@H](CO)O2)c(=O)[nH]c1=O [AZT, 3′-Azido-3′-deoxythymidine, reference compound]",Control; Highly,,,,,"pIC50 (HIV-1; Human immunodeficiency virus 1, PBMC, 168 h): 8.10; CC50 at 7 days [1]: > 1 µM"
"C[C@H](NC(=O)[C@@H](NC(=O)[C@@H]1CCCN1C(=O)[C@H](CCC(=O)O)NC(=O)[C@@H]1CCCN1C(=O)[C@H](CCCNC(=N)N)NC(=O)[C@H](CCCNC(=N)N)NC(=O)[C@H](CCCNC(=N)N)NC(=O)[C@H](CCCNC(=N)N)NC(=O)[C@H](CCCNC(=N)N)NC(=O)[C@H](CCCNC(=N)N)NC(=O)[C@H](CCCNC(=N)N)NC(=O)[C@H](CCCNC(=N)N)NC(=O)[C@@H](N)CCCNC(=N)N)[C@@H](C)O)C(=O)N1CCC[C@H]1C(=O)N[C@@H](CCC(=O)O)C(=O)N[C@@H](CCC(=O)O)C(=O)O [MPI-PEP1, NH2-(R)9-PEPTAPEE-COOH] (H-RRRRRRRRRPEPTAPEE-OH)",Active,4.66,> 200 µM,,,
"CC(C)C[C@H](NC(=O)[C@H](C)NC(=O)[C@@H](NC(=O)[C@@H]1CCCN1C(=O)[C@H](CCC(=O)O)NC(=O)[C@@H]1CCCN1C(=O)[C@H](CCCNC(=N)N)NC(=O)[C@H](CCCNC(=N)N)NC(=O)[C@H](CCCNC(=N)N)NC(=O)[C@H](CCCNC(=N)N)NC(=O)[C@H](CCCNC(=N)N)NC(=O)[C@H](CCCNC(=N)N)NC(=O)[C@H](CCCNC(=N)N)NC(=O)[C@H](CCCNC(=N)N)NC(=O)[C@@H](N)CCCNC(=N)N)[C@@H](C)O)C(=O)N[C@@H](CCC(=O)O)C(=O)N[C@@H](CCC(=O)O)C(=O)O [MPI-PEP2, NH2-(R)9-PEPTALEE-COOH] (H-RRRRRRRRRPEPTALEE-OH)",Inactive,< 3.70,> 200 µM,,,
"C[C@H](NC(=O)[C@@H](NC(=O)[C@@H]1CCCN1C(=O)[C@H](CCC(=O)O)NC(=O)[C@@H]1CCCN1C(=O)[C@@H](N)CCCNC(=N)N)[C@@H](C)O)C(=O)N1CCC[C@H]1C(N)=O [MPI-PEP3, NH2-RPEPTAP-CO-NH2] (H-RPEPTAP-NH2)",Inactive,< 3.70,> 200 µM,,,
p6(A9R) (LQSRPEPTRPPEESFRFGEETTTPSQKQEPIDKELYPLASLRSLFGSDPSSQ; not fully specified),,,,reduced β-galactosidase activity to background levels,abolishes the p6 binding affinity,
p6(E6G) (LQSRPGPTAPPEESFRFGEETTTPSQKQEPIDKELYPLASLRSLFGSDPSSQ; not fully specified),,,,,did not result in the elimination of the Tsg101-p6gag interaction,"Interactions Between Tsg101 and p6gag (β-Gal activity) (Tsg101; yeast Y189 co-transformed with activation domain-Tsg101 and binding domain-p6gag construct, filter lift, X-Gal): +; ability to bind Tsg101 protein / Tsg101-p6gag interaction (in words) (Tsg101; listed as E6G): capable of binding"
p6(P7L) (LQSRPELTAPPEESFRFGEETTTPSQKQEPIDKELYPLASLRSLFGSDPSSQ; not fully specified),,,,reduced β-galactosidase activity to background levels,abolishes the p6 binding affinity,
p6(P10L) (LQSRPEPTALPEESFRFGEETTTPSQKQEPIDKELYPLASLRSLFGSDPSSQ; not fully specified),,,,reduced β-galactosidase activity to background levels,abolishes the p6 binding affinity,

# From patent US20100256040A1 (priority 2001, published 2010)
